Values quoted from earlier work, collected in patent publication US6924273B2, “Chondroprotective/restorative compositions and methods of use thereof” (priority 2000, dated 2005).
One block for each molecule: values may come before it.

Assays:
[1] = oral administration
rats = conditions: 5000 mg/kg orally
mice = conditions: 5000 mg/kg orally
[2] = oral administration; remark: listed apart in the source

Molecule: N[C@H]1C(O)O[C@H](CO)[C@@H](O)[C@@H]1O.O=S(=O)(O)O (some centres unmarked) [Glucosamine sulfate]
absorbed [1]: greater than 90%
mortality (no LD50 established) (rats): no mortality
mortality (no LD50 established) (mice): no mortality

Molecule: N[C@H]1C(O)O[C@H](CO)[C@@H](O)[C@@H]1O (some centres unmarked) [Glucosamine]
solubility in water: very soluble in water

bioavailability [2]: around 15%
Molecule: Chondroitin sulfate [CS]
